Reference: US9688683B2, “Substituted condensed pyrimidine compounds” (GRÜNENTHAL GMBH, priority 2013, dated 2017)

What follows are molecules tested against human PDE4B1 (Homo sapiens (Human), UniProt Q07343) (assay: cAMP HTRF assay to determine the activity of hPDE4B1). Conditions: human recombinant PDE4B1 expressed in Sf9 cells; cAMP 40 nM; N=1-2, n=2; read-out: PDE4B IC50-value.
Sequence of human PDE4B1 (Q07343 whole entry): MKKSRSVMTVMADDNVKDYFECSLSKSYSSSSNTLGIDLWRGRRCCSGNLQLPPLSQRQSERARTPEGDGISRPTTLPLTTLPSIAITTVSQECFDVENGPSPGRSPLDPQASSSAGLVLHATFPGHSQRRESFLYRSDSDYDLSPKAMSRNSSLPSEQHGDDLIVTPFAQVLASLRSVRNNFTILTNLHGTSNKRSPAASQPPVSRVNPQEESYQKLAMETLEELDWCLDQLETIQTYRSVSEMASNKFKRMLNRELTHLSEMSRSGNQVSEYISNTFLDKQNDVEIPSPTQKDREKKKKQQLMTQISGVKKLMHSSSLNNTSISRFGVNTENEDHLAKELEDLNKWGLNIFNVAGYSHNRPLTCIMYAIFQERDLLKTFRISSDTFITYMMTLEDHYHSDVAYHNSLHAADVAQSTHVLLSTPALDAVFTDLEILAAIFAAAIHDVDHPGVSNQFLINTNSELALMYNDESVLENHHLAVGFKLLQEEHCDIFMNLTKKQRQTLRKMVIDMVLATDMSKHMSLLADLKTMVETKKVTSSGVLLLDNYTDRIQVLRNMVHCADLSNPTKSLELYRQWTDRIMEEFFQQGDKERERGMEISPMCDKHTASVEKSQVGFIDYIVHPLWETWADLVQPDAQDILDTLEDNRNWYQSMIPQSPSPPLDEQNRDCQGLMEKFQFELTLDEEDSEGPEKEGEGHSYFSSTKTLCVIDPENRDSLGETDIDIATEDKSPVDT
Assay type: biochemical
Experimental: A: Determination of the PDE4B IC50 Values with a cAMP HRTF® Assay to Determine the Activity of hPDE4B1
The inhibiting effect of the compounds on the enzyme activity of human PDE4B1 is measured by the quantification of 5′-AMP, which is formed from 3′,5′-adenosine monophosphate (cAMP). Human recombinant enzyme, expressed in Sf9 cells, and the HTRF (homogeneous time-resolved fluorescence) detection method are used in the assay.
The test compound or water (control) is mixed with the human recombinant PDE4B1 enzyme (4.8 U) in a buffer consisting of 44.4 mM tris-HCl, 5.28 mM MgCl2, 2.64 mM DTT and 0.044% Tween 20 (pH 7.8). After adding the cAMP enzyme substrate (final concentration 40 nM) the mixture is incubated for 30 minutes at room temperature. Then a fluorescence acceptor (Dye2 marked with cAMP), a fluorescence donor (anti-cAMP antibody marked with a europium cryptate) and the non-specific phosphodiesterase inhibitor IBMX (3-isobutyl-1-methylxanthine; final concentration 1 mM) are added. After 60 minutes the fluorescence transfer, which correlates with the amount of remaining cAMP, is measured with a microplate reader (Rubystar, BMG) at λex=337 nm, λem=620 nm and λem=665 nm. The enzyme activity is calculated from the quotient formed from the measured signal at 665 nm and that at 620 nm. The result is expressed as the percentage inhibition of enzyme activity of the control (without PDE4 inhibitor) (literature: N. Saldou et al., Comparison of recombinant human PDE4 isoforms: interaction with substrate and inhibitors, Cell. Signal. Vol. 10, No. 6, 427-440, 1998). The enzyme is omitted for measurement of the basal control.
An IC50 of under 1000 nM was found for `COc1ccc(-c2nc(C)c3ccn(-c4ccc(C(=O)O)cc4)c3n2)cc1F` [Compound 1, 4-(2-(3-Fluoro-4-methoxyphenyl)-4-methyl-7H-pyrrolo[2,3-d]pyrimidin-7-yl)benzoic acid] in this work.
An IC50 of under 1000 nM was found for `CCc1nc(-c2ccc(OC)c(F)c2)nc2c1ccn2-c1ccc(C(=O)O)cc1` [Compound 2, 4-(4-ethyl-2-(3-fluoro-4-methoxyphenyl)-7H-pyrrolo[2,3-d]pyrimidin-7-yl)benzoic acid] in this work.
An IC50 of under 1000 nM was found for `CCc1nc(-c2ccc(OC)c(F)c2)nc2c1ccn2-c1ccc(CC(=O)O)cc1` [Compound 4, 2,2,2-Trifluoroacetic acid compound with 2-(4-(4-ethyl-2-(3-fluoro-4-methoxyphenyl)-7H-pyrrolo[2,3-d]pyrimidin-7-yl)phenyl)acetic acid (1:1)] in this work.
An IC50 of 1000 to 10000 nM was found for `CCc1nc(-c2ccc(OC)c(F)c2)nc2c1CCN2c1ccc(C(=O)O)cc1` [Compound 6, 4-(4-ethyl-2-(3-fluoro-4-methoxyphenyl)-5H-pyrrolo[2,3-d]pyrimidin-7(6H)-yl)benzoic acid] in this work.
An IC50 of under 1000 nM was found for `COc1ccc(-c2nc(C)c3c(n2)N(c2ccc(CC(=O)O)cc2)CC3)cc1F` [Compound 7, 2-(4-(2-(3-Fluoro-4-methoxyphenyl)-4-methyl-5H-pyrrolo[2,3-d]pyrimidin-7(6H)-yl)phenyl)acetic acid] in this work.
An IC50 of under 1000 nM was found for `CCc1nc(-c2ccc(OC)c(F)c2)nc2c1CCN2c1ccc(CC(=O)O)cc1` [Compound 8, 2-(4-(4-Ethyl-2-(3-fluoro-4-methoxyphenyl)-5H-pyrrolo[2,3-d]pyrimidin-7(6H)-yl)phenyl)-acetic acid] in this work.
An IC50 of under 1000 nM was found for `CCc1nc(-c2ccc(OC)c(F)c2)nc2c1CCN2c1cccc(OCC(=O)N(C)C)c1` [Compound 9, 2-(3-(4-Ethyl-2-(3-fluoro-4-methoxyphenyl)-5H-pyrrolo[2,3-d]pyrimidin-7(6H)-yl)phenoxy)-N,N-dimethylacetamide] in this work.
An IC50 of under 1000 nM was found for `COc1ccc(-c2nc(C)c3c(n2)N(c2ccc(CC(=O)O)cc2)CC3C)cc1F` (stereo not shown) [Compound 12, 2,2,2-Trifluoroacetic acid compound with 2-(4-(2-(3-fluoro-4-methoxyphenyl)-4,5-dimethyl-5H-pyrrolo[2,3-d]pyrimidin-7(6H)-yl)phenyl)acetic acid (1:1)] in this work.
An IC50 of under 1000 nM was found for `COc1ccc(-c2nc(C)c3ccn(-c4ccc(C(=O)O)cc4)c3n2)cc1Cl` [Compound 14, 4-(2-(3-Chloro-4-methoxyphenyl)-4-methyl-7H-pyrrolo[2,3-d]pyrimidin-7-yl)benzoic acid] in this work.
An IC50 of under 1000 nM was found for `COc1ccc(-c2nc(C)c3ccn(-c4ccc(CC(=O)O)cc4)c3n2)cc1Cl` [Compound 16, 2-(4-(2-(3-Chloro-4-methoxyphenyl)-4-methyl-7H-pyrrolo[2,3-d]pyrimidin-7-yl)phenyl)acetic acid] in this work.
An IC50 of under 1000 nM was found for `COc1ccc(-c2nc(C)c3c(n2)N(c2ccc(CC(=O)O)cc2)CC3)cc1Cl` [Compound 20, 2-(4-(2-(3-Chloro-4-methoxyphenyl)-4-methyl-5H-pyrrolo[2,3-d]pyrimidin-7(6H)-yl)phenyl)acetic acid] in this work.
An IC50 of under 1000 nM was found for `CCc1nc(-c2ccc(OC)c(Cl)c2)nc2c1CCN2c1ccc(CC(=O)O)cc1` [Compound 21, 2-(4-(2-(3-Chloro-4-methoxyphenyl)-4-ethyl-5H-pyrrolo[2,3-d]pyrimidin-7(6H)-yl)phenyl)acetic acid] in this work.
An IC50 of under 1000 nM was found for `COc1ccc(-c2nc(C)c3c(n2)N(c2ccc(CC(=O)O)cc2)CC3C)cc1Cl` (stereo not shown) [Compound 24, 2,2,2-Trifluoroacetic acid compound with 2-(4-(2-(3-chloro-4-methoxyphenyl)-4,5-dimethyl-5H-pyrrolo[2,3-d]pyrimidin-7(6H)-yl)phenyl)acetic acid (1:1)] in this work.
An IC50 of under 1000 nM was found for `Cc1nc(-c2ccc(F)c(F)c2)nc2c1ccn2-c1ccc(C(=O)O)cc1` [Compound 26, 4-(2-(3,4-Difluorophenyl)-4-methyl-7H-pyrrolo[2,3-d]pyrimidin-7-yl)benzoic acid] in this work.
An IC50 of under 1000 nM was found for `Cc1nc(-c2ccc(Cl)s2)nc2c1ccn2-c1ccc(C(=O)O)cc1` [Compound 38, 4-(2-(5-Chlorothiophen-2-yl)-4-methyl-7H-pyrrolo[2,3-d]pyrimidin-7-yl)benzoic acid] in this work.
An IC50 of under 1000 nM was found for `Cc1nc(-c2ccc(Cl)s2)nc2c1CCN2c1ccc(CC(=O)O)cc1` [Compound 39, 2,2,2-Trifluoroacetic acid compound with 2-(4-(2-(5-chlorothiophen-2-yl)-4-methyl-5H-pyrrolo[2,3-d]pyrimidin-7(6H)-yl)phenyl)acetic acid (1:1)] in this work.
An IC50 of under 1000 nM was found for `CCc1nc(-c2ccc(Cl)s2)nc2c1CCN2c1cccc(OCC(=O)N(C)C)c1` [Compound 40, 2-(3-(2-(5-chlorothiophen-2-yl)-4-ethyl-5H-pyrrolo[2,3-d]pyrimidin-7(6H)-yl)phenoxy)-N,N-dimethylacetamide] in this work.
An IC50 of 1000 to 10000 nM was found for `COc1ccc(-c2nc(OC)c3ccn(-c4ccc(C(=O)O)cc4)c3n2)cc1Cl` [Compound 45, 4-(2-(3-chloro-4-methoxyphenyl)-4-methoxy-7H-pyrrolo[2,3-d]pyrimidin-7-yl)benzoic acid] in this work.
An IC50 of under 1000 nM was found for `CCc1nc(-c2ccc(Cl)s2)nc2c1CCN2c1ccc(C(=O)O)cc1` [Compound 46, 4-(2-(5-chlorothiophen-2-yl)-4-ethyl-5H-pyrrolo[2,3-d]pyrimidin-7(6H)-yl)benzoic acid] in this work.
An IC50 of 1000 to 10000 nM was found for `CCc1nc(-c2ccc(OC)c(F)c2)nc2c1CCN2c1cccc(OCC(=O)NC2COC2)c1` [Compound 47, 2-(3-(4-ethyl-2-(3-fluoro-4-methoxyphenyl)-5H-pyrrolo[2,3-d]pyrimidin-7(6H)-yl)phenoxy)-N-(oxetan-3-yl)acetamide] in this work.
An IC50 of 1000 to 10000 nM was found for `COc1ccc(-c2nc(S(C)(=O)=O)c3ccn(-c4cccc(OCC(=O)N(C)C)c4)c3n2)cc1F` [Compound 50, 2-(3-(2-(3-fluoro-4-methoxyphenyl)-4-(methylsulfonyl)-7H-pyrrolo[2,3-d]pyrimidin-7-yl)phenoxy)-N,N-dimethylacetamide] in this work.
An IC50 of 1000 to 10000 nM was found for `CCc1nc(-c2ccc(OC)c(F)c2)nc2c1CCN2c1cccc(OCC(=O)N(C)CC2CC2)c1` [Compound 51, N-(cyclopropylmethyl)-2-(3-(4-ethyl-2-(3-fluoro-4-methoxyphenyl)-5H-pyrrolo[2,3-d]pyrimidin-7(6H)-yl)phenoxy)-N-methylacetamide] in this work.
An IC50 of 1000 to 10000 nM was found for `COc1ccc(-c2nc(SC)c3ccn(-c4ccc(CC(=O)O)cc4)c3n2)cc1F` [Compound 69, 2-(4-(2-(3-fluoro-4-methoxyphenyl)-4-(methylthio)-7H-pyrrolo[2,3-d]pyrimidin-7-yl)phenyl)acetic acid] in this work.
An IC50 of 1000 to 10000 nM was found for `COc1ccc(-c2nc(C3CC3)c3ccn(-c4cccc(OCC(=O)N(C)C)c4)c3n2)cc1F` [Compound 76, 2-(3-(4-cyclopropyl-2-(3-fluoro-4-methoxyphenyl)-7H-pyrrolo[2,3-d]pyrimidin-7-yl)phenoxy)-N,N-dimethylacetamide] in this work.
An IC50 of 1000 to 10000 nM was found for `CCc1nc(-c2ccc(OC)nc2)nc2c1ccn2-c1cccc(OCC(=O)N(C)C)c1` [Compound 77, 2-(3-(4-ethyl-2-(6-methoxypyridin-3-yl)-7H-pyrrolo[2,3-d]pyrimidin-7-yl)phenoxy)-N,N-dimethylacetamide] in this work.
An IC50 of 1000 to 10000 nM was found for `COc1ccc(-c2ncc3c(n2)N(c2cccc(OCC(=O)N(C)C)c2)CC32CC2)cc1F` [Compound 78, 2-(3-(2′-(3-fluoro-4-methoxyphenyl)spiro[cyclopropane-1,5′-pyrrolo[2,3-d]pyrimidin]-7′(6′H)-yl)phenoxy)-N,N-dimethylacetamide] in this work.
An IC50 of 1000 to 10000 nM was found for `COc1ccc(-c2nc(C)c3c(n2)N(c2cccc(OCC(=O)N(C)C)c2)CC32CC2)cc1F` [Compound 79, 2-(3-(2′-(3-fluoro-4-methoxyphenyl)-4′-methylspiro-[cyclopropane-1,5′-pyrrolo[2,3-d]pyrimidin]-7′(6′H)-yl)phenoxy)-N,N-dimethylacetamide] in this work.
An IC50 of under 1000 nM was found for `CCc1nc(-c2cccnc2OC)nc2c1ccn2-c1cccc(OCC(=O)N(C)C)c1` [Compound 80, 2-(3-(4-ethyl-2-(2-methoxypyridin-3-yl)-7H-pyrrolo[2,3-d]pyrimidin-7-yl)phenoxy)-N,N-dimethylacetamide] in this work.
An IC50 of under 1000 nM was found for `CCc1nc(-c2cccc(S(C)(=O)=O)c2)nc2c1ccn2-c1cccc(OCC(=O)N(C)C)c1` [Compound 81, 2-(3-(4-ethyl-2-(3-(methylsulfonyl)phenyl)-7H-pyrrolo[2,3-d]pyrimidin-7-yl)phenoxy)-N,N-dimethylacetamide] in this work.
An IC50 of under 1000 nM was found for `CCc1nc(-c2ccncc2)nc2c1ccn2-c1cccc(OCC(=O)N(C)C)c1` [Compound 82, 2-(3-(4-ethyl-2-(pyridin-4-yl)-7H-pyrrolo[2,3-d]pyrimidin-7-yl)phenoxy)-N,N-dimethylacetamide] in this work.
An IC50 of under 1000 nM was found for `CCc1nc(-c2cccnc2)nc2c1ccn2-c1cccc(OCC(=O)N(C)C)c1` [Compound 83, 2-(3-(4-ethyl-2-(pyridin-3-yl)-7H-pyrrolo[2,3-d]pyrimidin-7-yl)phenoxy)-N,N-dimethylacetamide] in this work.
